Columns and labels:
normal fibroblasts [1] = assay: Lysosomal cystine content, cystine binding protein assay; assay type: cell-based, human
Procedure: (§1) Intracellular lysosomal free cystine was determined using a cystine binding protein (CBP) assay (Oshima et al, 1974 J. Biol. Chem., 249:6033-6039). CBP was procured from Riverside Scientific. The assay has a sensitivity of 0.1 μM. Total cell protein was determined by a modification of the Lowry method (Lowry O. et al 1951 J. Biol. Chem., 193:265-275). Statistical analyses were performed using paired t test for means with SSPS for Windows. Results are mean+/−1.0 SD (FIG. 3).
Normal fibroblast lysosomes were loaded with cystine by the addition of 0.5 mM cystine dimethylester (CDME, Sigma) to normal culture medium for 1 hour before treatment (Pisoni, R L, et al, 1992 Somat. Cell. Mol. Genet., 18:1-6). The cells were treated with apoptotic triggers, leaving CDME in the medium to prevent lysosomal cystine loss, and then analyzed for apoptosis.
The lysosomal cystine content of normal fibroblasts was also altered as follows. Normal fibroblasts also at passage 7-13 were pretreated with 0.5 mM CDME for 1 hour, increasing the cystine content of their lysosomes to the cystinotic range (0.47 to 1.95 nmol of cystine per mg of protein). […]
In another experiment, the cystine content was decreased in cystinotic cells from 2.3 to 0.5 nmols cystine/10^6 cells by pretreatment with MEA before incubation in cystine-free and serum-free Ham F12 medium. […] Cells were stained with CaspACE and analyzed. […]

normal fibroblasts [2] = assay: Phase micrographs, apoptotic morphology; assay type: cell-based, human; conditions: normal cells with CDME added, TNF-α exposure
Description: Phase micrographs (not shown) were also obtained of normal fibroblasts after TNF-α exposure alone, in normal fibroblasts in CDME, and in nephropathic fibroblasts after TNF-α exposure alone. Typical apoptotic morphology was observed, i.e., typical blebs in the plasma membrane are seen after treatment with TNF-a in both normal and cystinotic cell lines and the modulating effects of MEA and CDME was seen.

[3] = test system: renal proximal tubule epithelial (RPTE) cells; assay: Time course of apoptosis, TUNEL (FIG. 3); assay type: cell-based, human
Procedure: FIG. 3 is a graph showing the effect of CDME on apoptosis in renal proximal tubule epithelial (RPTE) cells. Semi-confluent RPTE cells were treated with either 0.25 mM CDME or TNF-a, harvested at 0.5, 1, 3, and 6 hours, stained with TUNEL, and enumerated by fluorescence microscopy. Each experiment was done in triplicate. The control (time 0) cystine content was 0.6 nmol/mg protein. After 1 hour incubation, the cystine content was 2.2 nmol/mg protein.
2. TUNEL Assay • The TUNEL assay employs terminal deoxynucleotidyl transferase (TdT) to label the ends of double stranded DNA breaks, which occur in apoptotic cells, with FITC-conjugated dUTP. Cells were fixed in 4% buffered formalin, washed, incubated in permeabilization solution (0.1% Triton X-100 in 0.1% Na Citrate) for 2 minutes on ice and then stained with 25 μL of TdT/45 μL of labeled dNTP mix for 40 minutes at 37° C. The cells were visually enumerated by fluorescence microscopy, scoring a minimum of five fields (250 to 300 cells) for fluorescence in triplicate followed by counting all cells in the same field by light microscopy, with a minimum of 750 cells scored per condition. The apoptosis rate is the total number of cells that fluoresce divided by the total cells in the field. […]

RPTE cells = assay: Annexin V and propidium iodide staining; assay type: cell-based, human; conditions: TNF-a after loading with 0.1 mM CDME
Procedure: 3. The Annexin V Assay • Annexin V-propidium iodide (PI) staining was performed as described by the manufacturer (Annexin V Fluos kit directions, Roche Laboratories) one time after TNF-a stimulation. D. Cystine Binding Protein Assay
Lysosomal cystine loading of RPTE cells was accomplished by exposure to 0.1 mM or 0.25 CDME in normal REGM for 1 hour before treatment with or without apoptotic triggers.
Exposure of RPTE cells to TNF-a after cystine loading by exposure to 0.1 mM CDME and analysis by Annexin V and Propidium iodide staining yielded 4.3% Annexiv V positive cells and zero PI positive cells at 1 h after exposure, 9.5% and 1.7% at 3 hours and 25.3% and 9.1% at 6 hours. The proportion of necrotic RPTE cells increased with duration of exposure to CDME, but remained substantially less than the number of those that are apoptotic.

kidney of black mice = assay: Kidney cystine concentration after CDME injection (CBP and BCA assays); assay type: in vivo, mouse
Procedure: as §1
CDME was evaluated in mice for cystine generation in response to varying doses as follows: A stock solution of CDME in PBS was prepared having a concentrations of 1.8 g CDME/500 μL PBS. The stock solution was diluted to generate solutions for administration. 500 μL of diluted solutions were injected intraperitoneally into black mice (body mass ˜0.03 kg). All injections were performed in duplicate.
Following administration of the solutions of Table 6, the endogenous cystine concentrations in two organs (kidney and liver) were examined for the 6 mice, i.e., the CDME-injected mice as well as black, heterozygous, and wild-type control mice. The analysis was performed using the cystine binding protein CBP assay of Example 1 and the Bicinchoninic Acid BCA assay (Pierce Biotechnology) for total protein concentration.

## COC(=O)[C@@H](N)CSSC[C@H](N)C(=O)OC [CDME, cystine dimethyl ester]
Normal fibroblasts [1]; increased from 0.4, before serum withdrawal
  cystine content after treatment with CDME: 1.3 nmols cystine/10^6 cells
Normal fibroblasts [1]; normal content <0.1 nmol/mg protein, UV light experiment
  cystine content after pre-exposure to CDME: 1.95 nmol/mg protein
Normal fibroblasts [2]
  apoptotic morphology in phase micrographs: Enhanced apoptosis
[3]; 0.25 mM CDME alone
  rate of apoptosis compared with TNF-a alone: equal to that induced by exposure to TNF-a alone
[3]; CDME, followed by lysis and release from the dish
  time to maximum rate of apoptosis: ≤ 6 h
RPTE cells; 1 h after exposure
  Annexin V positive cells: 4.3%
  PI positive cells: zero
RPTE cells; 3 hours
  Annexin V positive cells: 9.5%
  PI positive cells: 1.7%
RPTE cells; 6 hours
  Annexin V positive cells: 25.3%
  PI positive cells: 9.1%
Kidney of black mice; 10,000 mg CDME/kg intraperitoneally, Mouse #3
  Kidney Cystine Concentration: 97 nmol cystine/mg protein
Kidney of black mice; CDME-injected mice versus controls
  increase in intralysosomal cystine: ~100 fold
